Results from US11505543B2, “4-oxo-3,4-dihydroquinazoline compounds as inhibitors of human immunodeficiency virus replication” (VIIV HEALTHCARE UK (NO.5) LIMITED, priority 2018, dated 2022).

Columns and labels:
[1] = Compound cytotoxicity, XTT-based colorimetric assay; type: cell-based; conditions: human, uninfected MT2 cells, day 4, XTT
Method: Compound cytotoxicity and the corresponding CC50 values were determined using the same protocol as described in the antiviral assay except that uninfected cells were used. Cytotoxicity was assessed on day 4 in uninfected MT2 cells by using a XTT (2,3-bis[2-Methoxy-4-nitro-5-sulfophenyl]-2H-tetrazolium-5-carboxyanilide inner salt)-based colorimetric assay (Sigma-Aldrich, St Louis, Mo.).

[2] = tested on: recombinant NL4-3 virus (nef section replaced with Renilla luciferase gene) in MT-2 cells; assay: HIV cell culture assay (antiviral activity, luciferase readout); type: cell-based; conditions: Renilla, NL43, MT-2 cells infected for 4-5 days with recombinant NL4-3 Renilla luciferase virus, serial dilutions of compound
Method: HIV cell culture assay—MT-2 cells, 293T cells and the proviral DNA clone of NL4-3 virus were obtained from the NIH AIDS Research and Reference Reagent Program. MT-2 cells were propagated in RPMI 1640 media supplemented with 10% heat inactivated fetal bovine serum (FBS), 100 μg/ml penicillin G and up to 100 units/mL streptomycin. The 293T cells were propagated in DMEM media supplemented with 10% heat inactivated FBS, 100 μg/mL penicillin G and 100 μg/mL streptomycin. A recombinant NL4-3 proviral clone, in which a section of the nef gene was replaced with the Renilla luciferase gene, was used to make the reference virus used in these studies. The recombinant virus was prepared through transfection of the recombinant NL4-3 proviral clone into 293T cells using Transit-293 Transfection Reagent from Mirus Bio LLC (Madison, Wis.). Supernatent was harvested after 2-3 days and the amount of virus present was titered in MT-2 cells using luciferase enzyme activity as a marker by measuring luciferase enzyme activity. Luciferase was quantitated using the EnduRen Live Cell Substrate from Promega (Madison, Wis.). Antiviral activities of compounds toward the recombinant virus were quantified by measuring luciferase activity in MT-2 cells infected for 4-5 days with the recombinant virus in the presence of serial dilutions of the compound.
The 50% effective concentration (EC50) was calculated by using the exponential form of the median effect equation where (Fa)=1/[1+(ED50/drug conc.)^m] (Johnson VA, Byington RT. Infectivity Assay. In Techniques in HIV Research. ed. Aldovini A, Walker BD. 71-76. New York: Stockton Press. 1990). Curve fitting and analysis were performed with ActivityBase XE Runner software version 9.1.0.4 using model 203 (ID Business Solutions, LTD, Guildford, UK).

Row | Compound | CC50 at 4 day [1] | EC50 [2]
1 | O=C(Cn1ccc(C2CC2)n1)N[C@@H](Cc1cc(F)cc(F)c1)c1nc2cc(-c3ccccc3F)ccc2c(=O)n1-c1ccc(Cl)c2c(NS(=O)(=O)C3CC3)nn(CC(F)F)c12 (atropisomer, axis not shown) [Example 134, (S)-N-(1-(3-(4-chloro-3-(cyclopropanesulfonamido)-1-(2,2-difluoroethyl)-1H-indazol-7-yl)-7-(2-fluorophenyl)-4-oxo-3,4-dihydroquinazolin-2-yl)-2-(3,5-difluorophenyl)ethyl)-2-(3-cyclopropyl-1H-pyrazol-1-yl)acetamide] | > 1000 nM | 10 nM
2 | CC(C)c1ccn(CC(=O)N[C@@H](Cc2cc(F)cc(F)c2)c2nc3cc(-c4ccccc4F)ccc3c(=O)n2-c2ccc(Cl)c3c(NS(=O)(=O)C4CC4)nn(CC(F)F)c23)n1 (atropisomer, axis not shown) [Example 135, (S)-N-(1-(3-(4-chloro-3-(cyclopropanesulfonamido)-1-(2,2-difluoroethyl)-1H-indazol-7-yl)-7-(2-fluorophenyl)-4-oxo-3,4-dihydroquinazolin-2-yl)-2-(3,5-difluorophenyl)ethyl)-2-(3-isopropyl-1H-pyrazol-1-yl)acetamide] | > 1000 nM | 13 nM
3 | O=C(Cn1nc(C(F)F)cc1C(F)F)N[C@@H](Cc1cc(F)cc(F)c1)c1nc2cc(-c3ccccc3F)ccc2c(=O)n1-c1ccc(Cl)c2c(NS(=O)(=O)C3CC3)nn(CC(F)F)c12 (atropisomer, axis not shown) [Example 136, (S)-2-(3,5-bis(difluoromethyl)-1H-pyrazol-1-yl)-N-(1-(3-(4-chloro-3-(cyclopropanesulfonamido)-1-(2,2-difluoroethyl)-1H-indazol-7-yl)-7-(2-fluorophenyl)-4-oxo-3,4-dihydroquinazolin-2-yl)-2-(3,5-difluorophenyl)ethyl)acetamide] | > 1000 nM | 9.5 nM
4 | Cn1nc(NS(C)(=O)=O)c2c(Cl)ccc(-n3c([C@H](Cc4cc(F)cc(F)c4)NC(=O)Cn4nc(C(F)F)c5c4C(F)(F)[C@@H]4C[C@H]54)nc4cc(-c5ccccc5-c5ccccc5)ccc4c3=O)c21 (atropisomer, axis not shown; (aR)) [Example 9, N-((S)-1-(7-([1,1′-biphenyl]-2-yl)-3-(4-chloro-1-methyl-3-(methylsulfonamido)-1H-indazol-7-yl)-4-oxo-3,4-dihydroquinazolin-2-yl)-2-(3,5-difluorophenyl)ethyl)-2-((3bS,4aR)-3-(difluoromethyl)-5,5-difluoro-3b,4,4a,5-tetrahydro-1H-cyclopropa[3,4]cyclopenta[1,2-c]pyrazol-1-yl)acetamide] | > 1000 nM | 4.6 nM
5 | Cn1nc(NS(C)(=O)=O)c2c(Cl)ccc(-n3c([C@H](Cc4cc(F)cc(F)c4)NC(=O)Cn4nc(C(F)F)c5c4C(F)(F)[C@@H]4C[C@H]54)nc4cc(-c5ccc(Oc6ccccc6)cc5)ccc4c3=O)c21 (atropisomer, axis not shown; (aR)) [Example 14, N-((S)-1-(3-(4-chloro-1-methyl-3-(methylsulfonamido)-1H-indazol-7-yl)-4-oxo-7-(4-phenoxyphenyl)-3,4-dihydroquinazolin-2-yl)-2-(3,5-difluorophenyl)ethyl)-2-((3bS,4aR)-3-(difluoromethyl)-5,5-difluoro-3b,4,4a,5-tetrahydro-1H-cyclopropa[3,4]cyclopenta[1,2-c]pyrazol-1-yl)acetamide] | > 1000 nM | 9.8 nM
6 | Cn1nc(NS(C)(=O)=O)c2c(Cl)ccc(-n3c([C@H](Cc4cc(F)cc(F)c4)NC(=O)Cn4nc(C(F)F)c5c4C(F)(F)[C@@H]4C[C@H]54)nc4cc(-c5cccc(C(=O)O)c5)ccc4c3=O)c21 (atropisomer, axis not shown; (aR)) [Example 17, 3-(3-(4-chloro-1-methyl-3-(methylsulfonamido)-1H-indazol-7-yl)-2-((S)-1-(2-((3bS,4aR)-3-(difluoromethyl)-5,5-difluoro-3b,4,4a,5-tetrahydro-1H-cyclopropa[3,4]cyclopenta[1,2-c]pyrazol-1-yl)acetamido)-2-(3,5-difluorophenyl)ethyl)-4-oxo-3,4-dihydroquinazolin-7-yl)benzoic acid] | > 1000 nM | 9.7 nM
7 | Cn1nc(NS(C)(=O)=O)c2c(Cl)ccc(-n3c([C@H](Cc4cc(F)cc(F)c4)NC(=O)Cn4nc(C(F)F)c5c4C(F)(F)[C@@H]4C[C@H]54)nc4cc(-c5ccc(C(C)(C)O)cc5)ccc4c3=O)c21 (atropisomer, axis not shown; (aR)) [Example 18, N-((S)-1-(3-(4-chloro-1-methyl-3-(methylsulfonamido)-1H-indazol-7-yl)-7-(4-(2-hydroxypropan-2-yl)phenyl)-4-oxo-3,4-dihydroquinazolin-2-yl)-2-(3,5-difluorophenyl)ethyl)-2-((3bS,4aR)-3-(difluoromethyl)-5,5-difluoro-3b,4,4a,5-tetrahydro-1H-cyclopropa[3,4]cyclopenta[1,2-c]pyrazol-1-yl)acetamide] | > 1000 nM | 0.34 nM
8 | Cn1nc(NS(C)(=O)=O)c2c(Cl)ccc(-n3c([C@H](Cc4cc(F)cc(F)c4)NC(=O)Cn4nc(C(F)F)c5c4C(F)(F)[C@@H]4C[C@H]54)nc4cc(-c5cnc(F)c(F)c5)ccc4c3=O)c21 (atropisomer, axis not shown; (aR)) [Example 25, N-((S)-1-(3-(4-chloro-1-methyl-3-(methylsulfonamido)-1H-indazol-7-yl)-7-(5,6-difluoropyridin-3-yl)-4-oxo-3,4-dihydroquinazolin-2-yl)-2-(3,5-difluorophenyl)ethyl)-2-((3bS,4aR)-3-(difluoromethyl)-5,5-difluoro-3b,4,4a,5-tetrahydro-1H-cyclopropa[3,4]cyclopenta[1,2-c]pyrazol-1-yl)acetamide] | > 1000 nM | 0.25 nM
9 | Cc1cccc(C)c1-c1ccc2c(=O)n(-c3ccc(Cl)c4c(NS(C)(=O)=O)nn(C)c34)c([C@H](Cc3cc(F)cc(F)c3)NC(=O)Cn3nc(C(F)F)c4c3C(F)(F)[C@@H]3C[C@H]43)nc2c1 (atropisomer, axis not shown; (aR)) [Example 26, N-((S)-1-(3-(4-chloro-1-methyl-3-(methylsulfonamido)-1H-indazol-7-yl)-7-(2,6-dimethylphenyl)-4-oxo-3,4-dihydroquinazolin-2-yl)-2-(3,5-difluorophenyl)ethyl)-2-((3bS,4aR)-3-(difluoromethyl)-5,5-difluoro-3b,4,4a,5-tetrahydro-1H-cyclopropa[3,4]cyclopenta[1,2-c]pyrazol-1-yl)acetamide] | > 1000 nM | 0.72 nM
10 | Cn1nc(NS(C)(=O)=O)c2c(Cl)ccc(-n3c([C@H](Cc4cc(F)cc(F)c4)NC(=O)Cn4nc(C(F)F)c5c4C(F)(F)[C@@H]4C[C@H]54)nc4cc(-c5ccc6c(c5)CCCO6)ccc4c3=O)c21 (atropisomer, axis not shown; (aR)) [Example 28, N-((S)-1-(3-(4-chloro-1-methyl-3-(methylsulfonamido)-1H-indazol-7-yl)-7-(chroman-6-yl)-4-oxo-3,4-dihydroquinazolin-2-yl)-2-(3,5-difluorophenyl)ethyl)-2-((3bS,4aR)-3-(difluoromethyl)-5,5-difluoro-3b,4,4a,5-tetrahydro-1H-cyclopropa[3,4]cyclopenta[1,2-c]pyrazol-1-yl)acetamide] | > 1000 nM | 3.2 nM
11 | Cn1nc(NS(C)(=O)=O)c2c(Cl)ccc(-n3c([C@H](Cc4cc(F)cc(F)c4)NC(=O)Cn4nc(C(F)F)c5c4C(F)(F)[C@@H]4C[C@H]54)nc4cc(-c5cccc(F)c5)ccc4c3=O)c21 (atropisomer, axis not shown; (aR)) [Example 30, N-((S)-1-(3-(4-chloro-1-methyl-3-(methylsulfonamido)-1H-indazol-7-yl)-7-(3-fluorophenyl)-4-oxo-3,4-dihydroquinazolin-2-yl)-2-(3,5-difluorophenyl)ethyl)-2-((3bS,4aR)-3-(difluoromethyl)-5,5-difluoro-3b,4,4a,5-tetrahydro-1H-cyclopropa[3,4]cyclopenta[1,2-c]pyrazol-1-yl)acetamide] | > 1000 nM | 0.88 nM
12 | Cn1nc(NS(C)(=O)=O)c2c(Cl)ccc(-n3c([C@H](Cc4cc(F)cc(F)c4)NC(=O)Cn4nc(C(F)F)c5c4C(F)(F)[C@@H]4C[C@H]54)nc4cc(-c5cc(F)c(F)cc5F)ccc4c3=O)c21 [Example 171, N-((S)-1-(3-(4-chloro-1-methyl-3-(methylsulfonamido)-1H-indazol-7-yl)-4-oxo-7-(2,4,5-trifluorophenyl)-3,4-dihydroquinazolin-2-yl)-2-(3,5-difluorophenyl)ethyl)-2-((3bS,4aR)-3-(difluoromethyl)-5,5-difluoro-3b,4,4a,5-tetrahydro-1H-cyclopropa[3,4]cyclopenta[1,2-c]pyrazol-1-yl)acetamide] |  | 0.48 nM
